Assay results from BigSolDB 2.1.

O=C(O)CCCc1c[nH]c2ccccc12
solubility (mole fraction)
Conditions	283.15 K	288.15 K	293.15 K	298.15 K	303.15 K	308.15 K	313.15 K	318.15 K	323.15 K
in 2-butanone	0.123	0.139	0.152	0.168	0.185	0.198	0.218	0.24	0.264
in acetone	0.22	0.24	0.257	0.274	0.291	0.315	0.339	0.365	0.399
in acetonitrile	0.0411	0.0531	0.0654	0.0814	0.104	0.123	0.155	0.192	0.256
in dimethyl carbonate	0.0194	0.022	0.0287	0.0354	0.0453	0.0535	0.0644	0.0827	0.101
in ethanol	0.048	0.0557	0.0642	0.0753	0.0886	0.1	0.116	0.141	0.171
in ethyl acetate	0.049	0.0582	0.0689	0.0808	0.0914	0.103	0.122	0.145	0.17
in ethyl lactate	0.101	0.106	0.117	0.128	0.14	0.151	0.165	0.19	0.22
in isobutanol	0.0213	0.0253	0.0315	0.0379	0.0477	0.0581	0.0697	0.0857	0.102
in isobutyl acetate	0.0355	0.0429	0.0498	0.0572	0.0649	0.0736	0.0848	0.0958	0.11
in isopentanol	0.0309	0.0348	0.0412	0.0505	0.0601	0.0725	0.0858	0.0985	0.116
in isopropanol	0.0406	0.0494	0.0599	0.0724	0.0859	0.0984	0.112	0.128	0.143
in isopropyl acetate	0.0492	0.0628	0.0711	0.0813	0.0905	0.101	0.11	0.124	0.149
in methanol	0.0481	0.0562	0.0656	0.0777	0.0922	0.104	0.123	0.153	0.181
in methyl acetate	0.0573	0.0623	0.0701	0.0812	0.0909	0.106	0.126	0.154	0.19
in n-butanol	0.0362	0.0422	0.0495	0.0582	0.0688	0.0786	0.0961	0.112	0.134
in n-butyl acetate	0.0582	0.0645	0.0726	0.0797	0.0885	0.0977	0.112	0.129	0.141
in n-pentanol	0.0362	0.0408	0.0486	0.058	0.0674	0.0764	0.0929	0.108	0.124
in n-propanol	0.0385	0.0446	0.0534	0.0605	0.0727	0.0863	0.0994	0.112	0.139
in sec-butanol	0.0417	0.0486	0.0582	0.0692	0.0829	0.0964	0.111	0.13	0.163
